Measured values: PubChem BioAssay (NCI)
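Here, GI50 denotes the concentration required for 50% inhibition of growth. TGI: total growth inhibition.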

How the values were obtained:
Assay in all cases: NCI-60 cell line screen, 384-well format
COLO 205 colon = tested on: COLO 205 colon
HT29 colon = tested on: HT29 colon
MCF7 breast = tested on: MCF7 breast
SR leukemia = tested on: SR leukemia
K-562 leukemia = tested on: K-562 leukemia
SNB-75 CNS = tested on: SNB-75 CNS
HCT-116 colon = tested on: HCT-116 colon
EKVX NSCLC = tested on: EKVX NSCLC
DU-145 prostate = tested on: DU-145 prostate
MOLT-4 leukemia = tested on: MOLT-4 leukemia
NCI-H322M lung = tested on: NCI-H322M lung
IGROV1 ovarian = tested on: IGROV1 ovarian
SW-620 colon = tested on: SW-620 colon
TK-10 renal = tested on: TK-10 renal
M14 melanoma = tested on: M14 melanoma
HL-60(TB) leukemia = tested on: HL-60(TB) leukemia
SF-295 CNS = tested on: SF-295 CNS
SF-268 CNS = tested on: SF-268 CNS
MDA-MB-435 melanoma = tested on: MDA-MB-435 melanoma
SK-MEL-2 melanoma = tested on: SK-MEL-2 melanoma
SK-MEL-5 melanoma = tested on: SK-MEL-5 melanoma
CAKI-1 renal = tested on: CAKI-1 renal
HCC-2998 colon = tested on: HCC-2998 colon
SN12C renal = tested on: SN12C renal
T-47D breast = tested on: T-47D breast
UACC-257 melanoma = tested on: UACC-257 melanoma
NCI-H522 lung = tested on: NCI-H522 lung
KM12 colon = tested on: KM12 colon
ACHN renal = tested on: ACHN renal
SNB-19 CNS = tested on: SNB-19 CNS
OVCAR-4 ovarian = tested on: OVCAR-4 ovarian
PC-3 prostate = tested on: PC-3 prostate
786-0 renal = tested on: 786-0 renal
SK-OV-3 ovarian = tested on: SK-OV-3 ovarian
LOX IMVI melanoma = tested on: LOX IMVI melanoma
HS 578T breast = tested on: HS 578T breast
RXF 393 renal = tested on: RXF 393 renal
A498 renal = tested on: A498 renal
SF-539 CNS = tested on: SF-539 CNS
BT-549 breast = tested on: BT-549 breast
MALME-3M melanoma = tested on: MALME-3M melanoma
NCI-H23 lung = tested on: NCI-H23 lung
U251 glioblastoma = tested on: U251 glioblastoma
OVCAR-3 ovarian = tested on: OVCAR-3 ovarian
OVCAR-5 ovarian = tested on: OVCAR-5 ovarian
MDA-MB-231 breast = tested on: MDA-MB-231 breast
UO-31 renal = tested on: UO-31 renal
RPMI-8226 leukemia = tested on: RPMI-8226 leukemia
MDA-MB-468 breast = tested on: MDA-MB-468 breast
HOP-92 NSCLC = tested on: HOP-92 NSCLC
SK-MEL-28 melanoma = tested on: SK-MEL-28 melanoma
NCI/ADR-RES ovarian = tested on: NCI/ADR-RES ovarian
HCT-15 colon = tested on: HCT-15 colon
NCI-H226 lung = tested on: NCI-H226 lung
HOP-62 NSCLC = tested on: HOP-62 NSCLC
UACC-62 melanoma = tested on: UACC-62 melanoma
CCRF-CEM leukemia = tested on: CCRF-CEM leukemia
A549 NSCLC = tested on: A549 NSCLC
NCI-H460 NSCLC = tested on: NCI-H460 NSCLC

NCCCCN(Cc1nc2ccccc2[nH]1)[C@H]1CCCc2cccnc21
GI50 (COLO 205 colon): 2.35 µM
TGI (COLO 205 colon): 5.73 µM
GI50 (HT29 colon): 3.6 µM
TGI (HT29 colon): 13.4 µM
GI50 (MCF7 breast): 7.6 µM
TGI (MCF7 breast): 25.9 µM
GI50 (SR leukemia): 1.3 µM
TGI (SR leukemia): 2.59 µM
GI50 (K-562 leukemia): 10.2 µM
TGI (K-562 leukemia): 22.5 µM
GI50 (SNB-75 CNS): 4.2 µM
TGI (SNB-75 CNS): 18.1 µM
GI50 (HCT-116 colon): 5.3 µM
TGI (HCT-116 colon): 20.5 µM
GI50 (EKVX NSCLC): 8.83 µM
TGI (EKVX NSCLC): 24.5 µM
GI50 (DU-145 prostate): 7.23 µM
TGI (DU-145 prostate): > 100 µM
GI50 (MOLT-4 leukemia): 1.31 µM
TGI (MOLT-4 leukemia): 2.84 µM
GI50 (NCI-H322M lung): 4.64 µM
TGI (NCI-H322M lung): 24.6 µM
GI50 (IGROV1 ovarian): 5.7 µM
TGI (IGROV1 ovarian): 19.1 µM
GI50 (SW-620 colon): 10.4 µM
TGI (SW-620 colon): 34.1 µM
GI50 (TK-10 renal): 10.6 µM
TGI (TK-10 renal): 23.6 µM
GI50 (M14 melanoma): 5.75 µM
TGI (M14 melanoma): 18.4 µM
GI50 (HL-60(TB) leukemia): 1.35 µM
TGI (HL-60(TB) leukemia): 2.82 µM
GI50 (SF-295 CNS): 8.81 µM
TGI (SF-295 CNS): 22.1 µM
GI50 (SF-268 CNS): 5.51 µM
TGI (SF-268 CNS): 35.1 µM
GI50 (MDA-MB-435 melanoma): 7.39 µM
TGI (MDA-MB-435 melanoma): 23.3 µM
GI50 (SK-MEL-2 melanoma): 20.3 µM
TGI (SK-MEL-2 melanoma): 34.7 µM
GI50 (SK-MEL-5 melanoma): 2.62 µM
TGI (SK-MEL-5 melanoma): 15.9 µM
GI50 (CAKI-1 renal): 7.89 µM
TGI (CAKI-1 renal): 22.5 µM
GI50 (HCC-2998 colon): 4.63 µM
TGI (HCC-2998 colon): 18.4 µM
GI50 (SN12C renal): 9.33 µM
TGI (SN12C renal): 52.2 µM
GI50 (T-47D breast): 12.7 µM
TGI (T-47D breast): 32.1 µM
GI50 (UACC-257 melanoma): 7.89 µM
TGI (UACC-257 melanoma): 20.5 µM
GI50 (NCI-H522 lung): 2.68 µM
TGI (NCI-H522 lung): 18.6 µM
GI50 (KM12 colon): 6.23 µM
TGI (KM12 colon): 33.8 µM
GI50 (ACHN renal): 17.3 µM
TGI (ACHN renal): 35.9 µM
GI50 (SNB-19 CNS): 18 µM
TGI (SNB-19 CNS): > 100 µM
GI50 (OVCAR-4 ovarian): 4.66 µM
TGI (OVCAR-4 ovarian): 26.2 µM
GI50 (PC-3 prostate): 6.25 µM
TGI (PC-3 prostate): 40.8 µM
GI50 ([…]-0 renal): 8.34 µM
TGI (786-0 renal): 31.3 µM
GI50 (SK-OV-3 ovarian): 9.63 µM
TGI (SK-OV-3 ovarian): 40.4 µM
GI50 (LOX IMVI melanoma): 9.28 µM
TGI (LOX IMVI melanoma): 23 µM
GI50 (HS 578T breast): 4.57 µM
TGI (HS 578T breast): 18.4 µM
GI50 (RXF 393 renal): 4.56 µM
TGI (RXF 393 renal): 21.4 µM
GI50 (A498 renal): 14.7 µM
TGI (A498 renal): 44.2 µM
GI50 (SF-539 CNS): 9.07 µM
TGI (SF-539 CNS): 21.3 µM
GI50 (BT-549 breast): 7.45 µM
TGI (BT-549 breast): 28.5 µM
GI50 (MALME-3M melanoma): 11.9 µM
TGI (MALME-3M melanoma): 24.3 µM
GI50 (NCI-H23 lung): 4.94 µM
TGI (NCI-H23 lung): 22.9 µM
GI50 (U251 glioblastoma): 6.5 µM
TGI (U251 glioblastoma): 25.9 µM
GI50 (OVCAR-3 ovarian): 2.2 µM
TGI (OVCAR-3 ovarian): 15.9 µM
GI50 (OVCAR-5 ovarian): 5.13 µM
TGI (OVCAR-5 ovarian): 28.2 µM
GI50 (MDA-MB-231 breast): 4.42 µM
TGI (MDA-MB-231 breast): 23.6 µM
GI50 (UO-31 renal): 13.4 µM
TGI (UO-31 renal): 29.1 µM
GI50 (RPMI-8226 leukemia): 5.63 µM
TGI (RPMI-8226 leukemia): 19.1 µM
GI50 (MDA-MB-468 breast): 2.81 µM
TGI (MDA-MB-468 breast): 8.14 µM
GI50 (HOP-92 NSCLC): 2.7 µM
TGI (HOP-92 NSCLC): 13.4 µM
GI50 (SK-MEL-28 melanoma): 11.4 µM
TGI (SK-MEL-28 melanoma): 24.3 µM
GI50 (NCI/ADR-RES ovarian): 16 µM
TGI (NCI/ADR-RES ovarian): 31.6 µM
GI50 (HCT-15 colon): 13.9 µM
TGI (HCT-15 colon): 32.2 µM
GI50 (NCI-H226 lung): 10.4 µM
TGI (NCI-H226 lung): 23.5 µM
GI50 (HOP-62 NSCLC): 3.94 µM
TGI (HOP-62 NSCLC): 19 µM
GI50 (UACC-62 melanoma): 10.1 µM
TGI (UACC-62 melanoma): 22.3 µM
GI50 (CCRF-CEM leukemia): 5.43 µM
TGI (CCRF-CEM leukemia): 18.5 µM
GI50 (A549 NSCLC): 9.68 µM
TGI (A549 NSCLC): 28.4 µM
GI50 (NCI-H460 NSCLC): 4.47 µM
TGI (NCI-H460 NSCLC): 18.1 µM
